The values below come from patent US6013642A, “Use of estrone derivatives as steroid sulphatase inhibitors” (priority 1994, dated 2000).

The subject of experiment [1] is mouse contact sensitisation model. As to the kind of experiment: Contact sensitisation (oxazalone, ear swelling) in mice. The experiment is classed as in vivo. The protocol: 1. Contact Sensitisation (CS)
On day 0, mice were painted on their shaved right flank with 50 μl 2.5% oxazalone or vehicle (acetone 4:1 olive oil). On day 5 animals were challenged on their dorsal right ear surface with 25 μl of either 0.75% or 0.25% oxazalone. Prior to ear challenge, and 24, 48 and 72 hour post challenge ear thickness was measured using an engineer's micrometers. Ear swelling is determined as the difference in thickness prior and post challenge. The data are expressed as percentage change from the vehicle treated groups given sensitisation and challenge.
DHEA, DHEAS were administered at various times, generally at time of sensitisation (day 0) and time of challenge (day 3 or 4-DTH model, day 4 or 5-(CS-model) in order to obtain an augmentation of the immune response above non-steroid treated animals.
Different doses of the inhibitors have been used, and compared to the effect of dexamethasone as potential immunosuppressive/anti-inflammatory agents.

Experiment [2] deals with collagen II-induced arthritis. Put plainly: Collagen II-induced arthritis in mice. Format: in vivo, Male DBA/1 mice. The note with it: FIG. 13; CT2251 10 mg/kg on day -1 and weekly. Here is the method: Male DBA/1 mice were sensitised with type II collagen into the base of the tail in FCA in day 0. These animals received a further injection of CII in FICA (Freunds Incomplete Adjuvant) on day 18 and incidence and severity of arthritis assessed from day 25. Mice were randomised into 3 groups (n=10).

Experiment [3] concerns mouse contact sensitisation model. As to the kind of experiment: Cellular infiltrate (anti-CD3 / anti-Mac-1 positive cells) in challenged ears, contact sensitisation. The experiment is classed as in vivo, mice. The note with it: Experiment 7, FIG. 10, 24 h following challenge. Here is the method: Animals were randomised into 7 groups (n=7-10) and steroids given on days 0 and 5. At 24 h following challenge, ears were removed, fixed and stained with either an anti-CD3 (T-cells) or anti-Mac-1 (monocytes/macrophages) antibody and the number of positive cells counted in 10 random fields.

For experiment [4], the system named is rat delayed type hypersensitivity model. Put plainly: Delayed type hypersensitivity in the rat. Format: in vivo, Lewis rats. To be noted: FIG. 12; CT2251 0.1, 1, 10 mg/kg s.c. days 0, 3 and 4; 24 and 48 h. Here is the method:
Lewis rats were sensitised with SRBC IV and challenged 4 days later with 10^8 SRBC into the footpad. The resulting swelling response was measured 24 and 48 h later. Rats were randomised into 5 groups (n=6-7) and steroids given on days 0, 3 and 4, subcutaneously. Results given as mean±sem.

The structures appear in SMILES notation.

Regarding `C[C@]12CC[C@@H]3c4ccc(OS(N)(=O)=O)cc4CC[C@H]3[C@@H]1CCC2=O` [CT 2251, Estrone 3-0-sulphamate], the “normal ear swelling response, inhibitor on its own” value in experiment [1] (Experiment 4, FIG. 7, CT2251 0.1 and 10 mg/kg s.c. days 0 and 4) is listed as “significantly inhibited the normal ear swelling response”. For the same compound, in experiment [1] (Experiment 4, FIG. 7, CT2251 0.1 and 10 mg/kg with DHEA 5 mg/kg s.c. days 0 and 4), the “effect on DHEA-augmented ear swelling” value was “not that seen with DHEA”. Besides, the “effect on DHEAS-augmented ear swelling” value in experiment [1] (Experiment 4, FIG. 7, CT2251 0.1 and 10 mg/kg with DHEAS 5 mg/kg s.c. days 0 and 4) is “reversed the augmentation seen with DHEAS”. Further, in experiment [1] (Experiment 5, FIG. 8, CT2251 0.001-0.3 mg/kg s.c. days 0 and 4, 24 h), the “degree of ear swelling” value is recorded as “inhibited by CT2251 treatment in a dose-dependent manner”. For the same compound, the “inhibitory effect on ear swelling in presence of increasing substrate” value in experiment [1] (Experiment 6, FIG. 9, CT2251 0.1 mg/kg with DHEAS 5, 15, 50 mg/kg days 0 and 4, 24 h) is “can be reverse by increasing doses of DHEAS”. Besides, in experiment [1] (Mus musculus, sc, Experiment 5, FIG. 8, s.c. days 0 and 4, 24 h, read-out: effective dose for inhibition of ear swelling), the minimal effective dose is at least 0.1 mg/kg. The “development of arthritis (incidence and severity)” value in experiment [2] is listed as “prevented the development of any disease”. Also, in experiment [3] (CT2251 10 mg/kg with DHEAS 5 mg/kg), the “effect on DHEAS-augmented cell infiltrate” value is “effectively reversed”. Further, in experiment [3] (CT2251 10 mg/kg), the “number of infiltrating CD3 positive cells, inhibitor on its own” value is on record as “able to further reduce the number of infiltrating CD3 positive cells”. Besides, in experiment [4], the “DTH footpad swelling response” value is “can also suppress a DTH response in rats”.
